Patent publication US9745328B2, “Flap modulators” (JANSSEN PHARMACEUTICA NV, priority 2013, dated 2017)
Counter-ions that a name gives are not always drawn.

biological target: human FLAP (Homo sapiens (Human), UniProt P20292); assay: FLAP binding assay (HTRF format); settings: Table 6 (additional runs), human FLAP wild type
Method in brief: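 Averaged over two plates (duplicate wells per plate); output given as HTRF ratio.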

Chain of human FLAP (P20292 whole entry): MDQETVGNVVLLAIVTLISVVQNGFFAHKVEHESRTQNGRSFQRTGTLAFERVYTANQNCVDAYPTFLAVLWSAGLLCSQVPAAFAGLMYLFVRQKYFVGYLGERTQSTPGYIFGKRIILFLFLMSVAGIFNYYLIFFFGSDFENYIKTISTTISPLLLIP

**Q.** Which Ki does the source give for `Nc1cnc(-c2ccc(-c3ccccc3Sc3cc(N)ncn3)cc2F)cn1` [Example 215, 6-{[4′-(5-Aminopyrazin-2-yl)-3′-fluorobiphenyl-2-yl]sulfanyl}pyrimidin-4-amine hydrochloride] here?
**A.** The Ki was 2.4 nM.

**Q.** Which Ki does the source give for `Nc1cnc(-c2ccc(-c3ccccc3Sc3nccc(N)n3)cc2F)cn1` [Example 216, 2-{1,4′-(5-Aminopyrazin-2-yl)-3′-fluorobiphenyl-2-yl]sulfanyl}pyrimidin-4-amine hydrochloride] here?
**A.** Its Ki is 2.2 nM.

**Q.** For `Nc1cnc(-c2ccc(-c3ccccc3Sc3ncncc3N)cc2F)cn1` [Example 217, 4-{[4′-(5-Aminopyrazin-2-yl)-3′-fluorobiphenyl-2-yl]sulfanyl}pyrimidin-5-amine hydrochloride], which Ki is on record?
**A.** The Ki was 1.2 nM.

**Q.** Which Ki does the source give for `Nc1cnc(-c2ccc(-c3ccccc3Sc3cnccn3)cc2F)cn1` [Example 218, 5-[3-Fluoro-2′-(pyrazin-2-ylsulfanyl)biphenyl-4-yl]pyrazin-2′ amine hydrochloride] here?
**A.** Its Ki is 3.3 nM.

**Q.** Which Ki does the source give for `C[C@H](O)CNS(=O)(=O)Cc1ccccc1-c1ccc(-c2cnc(N)cn2)c(F)c1` [Example 227, (S)-1-[4′-(5-Aminopyrazin-2-yl)-3′-fluorobiphenyl-2-yl]-N-[(2S)-2-hydroxypropyl]methanesulfonamide hydrochloride] here?
**A.** Its Ki is 670 nM.

**Q.** For `C[C@@H](O)CNS(=O)(=O)Cc1ccccc1-c1ccc(-c2cnc(N)cn2)c(F)c1` [Example 228, (R)-1-[4′-(5-Aminopyrazin-2-yl)-3′-fluorobiphenyl-2-yl]-N-[(2S)-2-hydroxypropyl]methanesulfonamide], which Ki is on record?
**A.** Its Ki is 1060 nM.

**Q.** How did the Ki turn out when `Nc1cnc(-c2ccc(-c3ccccc3CS(=O)(=O)N3CCC(N)CC3)cc2F)cn1` [Example 229, 5-(2′-{[(4-Aminopiperidin.-1-yl)sulfonyl]methyl}-3-fluorobiphenyl-4-yl)pyrazin-2-amine hydrochloride] was run?
**A.** The Ki was 1070 nM.

**Q.** For `Nc1cnc(-c2ccc(-c3ccccc3CSc3ccc(N)nn3)cc2F)cn1` [Example 240, 6-(((4′-(5-aminopyrazin-2-yl)-3′-fluoro-[1,1′-biphenyl]-2-yl)methyl)thio)pyridazin-3-amine hydrochloride], which Ki is on record?
**A.** Its Ki is 2.4 nM.

**Q.** How did the Ki turn out when `Nc1cnc(-c2ccc(-c3ccccc3Sc3ccnc(N)n3)cc2F)cn1` [Example 242, 4-{[4′(5-Aminopyrazin-2-yl)-3′-fluorobiphenyl-2-yl]sulfanyl}pyrimidin-2-amine hydrochloride] was run?
**A.** Its Ki is 0.7 nM.

**Q.** `Nc1cnc(-c2ccc(-c3ccccc3CSc3ccncn3)cc2F)cn1` [Example 243, 5-(3-fluoro-2′-((pyrimidin-4-ylthio)methyl)-[1,1′-biphenyl]-4-yl)pyrazin-2-amine hydrochloride] was tested. Which Ki did it give?
**A.** The Ki was 3.3 nM.

**Q.** With `CC[C@@H](CO)NS(=O)(=O)c1ccccc1-c1ccc(-c2cnc(N)nc2)c(F)c1` [Example 248, 4′-(2-Aminopyrimidin-5-yl)-3′-fluoro-N-[(1S)-1-(hydroxymethyl)propyl]biphenyl-2-sulfonamide] as the molecule, how does the Ki read?
**A.** The Ki was 56.8 nM.

**Q.** For `CC(C)(CO)CNS(=O)(=O)c1ccccc1-c1ccc(-c2cnc(N)nc2)c(F)c1` [Example 251, 4′-(2-Aminopyrimidin-5-yl)-3′-fluoro-N-(3-hydroxy-2,2-dimethylpropyl)biphenyl-2-sulfonamide], which Ki is on record?
**A.** Its Ki is 4.5 nM.

**Q.** For `CC(CO)(CO)NS(=O)(=O)c1ccccc1-c1ccc(-c2cnc(N)nc2)c(F)c1` [Example 255, 4′-(2-Aminopyrimidin-5-yl)-3′-fluoro-N-[2-hydroxy-1-(hydroxymethyl)-1-methylethyl]biphenyl-2-sulfonamide], which Ki is on record?
**A.** The Ki was 8.1 nM.

**Q.** How did the Ki turn out when `CC(C)N(CCO)S(=O)(=O)c1ccccc1-c1ccc(-c2cnc(N)nc2)c(F)c1` [Example 261, 4′-(2-Aminopyrimidin-5-yl)-3′-fluoro-N-(2-hydroxyethyl)-N-(1-methylethyl)biphenyl-2-sulfonamide] was run?
**A.** The Ki was 5.6 nM.

**Q.** With `Nc1ncc(-c2ccc(-c3ccccc3S(=O)(=O)N[C@H]3CCNC3=O)cc2F)cn1` [Example 263, 4′-(2-Aminopyrimidin-5-yl)-3′-fluoro-N-[(3S)-2-oxopyrrolidin-3-yl]biphenyl-2-sulfonamide] as the molecule, how does the Ki read?
**A.** Its Ki is 127 nM.

**Q.** Which Ki does the source give for `Nc1ncc(-c2ccc(-c3ccccc3S(=O)(=O)N3CC(O)C3)cc2F)cn1` [Example 265, 1-{[4′-(2-Aminopyrimidin-5-yl)-3′-fluorobiphenyl-2-yl]sulfonyl}azetidin-3-ol trifluoroacetic acid salt] here?
**A.** The Ki was 35.5 nM.

**Q.** With `Nc1ncc(-c2ccc(-c3ccccc3S(=O)(=O)N[C@@H]3CCCNC3=O)cc2F)cn1` [Example 266, 4′-(2-Aminopyrimidin-5-yl)-3′-fluoro-N-[(3R)-2-oxopiperidin-3-yl]biphenyl-2-sulfonamide trifluoroacetic acid salt] as the molecule, how does the Ki read?
**A.** Its Ki is 133 nM.

**Q.** For `Nc1ncc(-c2ccc(-c3ccccc3S(=O)(=O)N[C@H]3CCCNC3=O)cc2F)cn1` [Example 267, 4′-(2-Aminopyrimidin-5-yl)-3′-fluoro-N-[(3S)-2-oxopiperidin-3-yl]biphenyl-2-sulfonamide trifluoroacetic acid salt], which Ki is on record?
**A.** The Ki was 185 nM.

**Q.** For `CC(C)(O)CNS(=O)(=O)c1ccccc1-c1ccc(-c2cnc(N)nc2)c(F)c1` [Example 272, 4′-(2-Aminopyrimidin-5-y)-3′-fluoro-N-(2-hydroxy-2-methylpropyl)biphenyl-2-sulfonamide trifluoroacetic acid salt], which Ki is on record?
**A.** The Ki was 26.9 nM.

**Q.** For `CC(C)(CO)NS(=O)(=O)c1ccccc1-c1ccc(-c2cnc(N)nc2)c(F)c1` [Example 280, 4′-(2-.Aminopyrimidin-5-yl)-3′-fluoro-N-(2-hydroxy-1,1-dimethylethyl)biphenyl-2-sulfonamide trifluoroacetic acid salt], which Ki is on record?
**A.** Its Ki is 3.3 nM.

**Q.** With `Nc1ncc(-c2ccc(-c3ccccc3S(=O)(=O)N3CCN(C4CC4)CC3)cc2F)cn1` [Example 281, 5-{2′-[(4-Cyclopropylpiperazin-1-yl)sulfonyl]-3-fluorobiphenyl-4-yl}pyrimidin-2-amine trifluoroacetic acid salt] as the molecule, how does the Ki read?
**A.** The Ki was 60.8 nM.

**Q.** Which Ki does the source give for `Nc1ncc(-c2ccc(-c3ccccc3S(=O)(=O)Nc3ccccc3)cc2F)cn1` [Example 285, 4′-(2-Aminopyrimidin-5-yl)-3′-fluoro-N-phenylbiphenyl-2-sulfonamide trifluoroacetic acid salt] here?
**A.** The Ki was 3.3 nM.

**Q.** Which Ki does the source give for `Cc1cccc(-c2ccc(-c3cnc(N)nc3)c(F)c2)c1S(=O)(=O)NC(C)(C)C` [Example 287, 4′-(2-Aminopyrimidin-5-yl)-N-tert-butyl-3′-fluoro-3-methylbiphenyl-2-sulfonamide trifluoroacetic acid salt] here?
**A.** The Ki was 8.5 nM.

**Q.** With `Nc1ncc(-c2ccc(-c3ccccc3S(=O)(=O)N[C@@H](c3ccccc3)C(F)(F)F)cc2F)cn1` [Example 292, 4′-(2-Aminopyrimidin-5-yl)-3′-fluoro-N-[(1S)-2,2,2-trifluoro-1-phenylethyl]biphenyl-2-sulfonamide trifluoroacetic acid salt] as the molecule, how does the Ki read?
**A.** Its Ki is 9.9 nM.

**Q.** How did the Ki turn out when `CC(C)CNS(=O)(=O)c1ccccc1-c1ccc(-c2cnc(N)nc2)c(F)c1` [Example 294, 4′-(2-Aminopyrimidin-5-yl)-3′-fluoro-N-(2-methylpropyl)biphenyl-2-sulfonamide trifiuoroacetic acid salt] was run?
**A.** Its Ki is 2.4 nM.

**Q.** With `CCNS(=O)(=O)c1ccccc1-c1ccc(-c2cnc(N)nc2)c(F)c1` [Example 295, 4′-(2-Aminopyrimidin-5-yl)-N-ethyl-3′-fluorobiphenyl-2-sulfonamide trifluoroacetic acid salt] as the molecule, how does the Ki read?
**A.** The Ki was 20 nM.

**Q.** Which Ki does the source give for `CC(C)(NS(=O)(=O)c1ccccc1-c1ccc(-c2cnc(N)nc2)c(F)c1)C(F)(F)F` [Example 296, 4′-(2-Aminopyrimidin-5-yl)-3′-fluoro-N-(2,2,2-trifluoro-1,1-dimethylethyl)biphenyl-2-sulfonamide trifluoroacetic acid salt] here?
**A.** Its Ki is 3.1 nM.

**Q.** Which Ki does the source give for `C[C@H](NS(=O)(=O)c1ccccc1-c1ccc(-c2cnc(N)nc2)c(F)c1)C(F)(F)F` [Example 297, 4′-(2-Aminopyrimidin-5-yl)-3′-fluoro-N-[(1S)-2,2,2-trifluoro-1-methylethyl]biphenyl-2-sulfonamide trifluoroacetic acid salt] here?
**A.** The Ki was 3.2 nM.

**Q.** `Nc1ncc(-c2ccc(-c3ccccc3S(=O)(=O)N3CCCC3)cc2F)cn1` [Example 298, 5-[3-Fluoro-2′-(pyrrolidin-1-ylsulfonyl)biphenyl-4-yl]pyrimidin-2-amine trifluoroacetic acid salt] was tested. Which Ki did it give?
**A.** Its Ki is 80.6 nM.

**Q.** Which Ki does the source give for `CC(C)(C)NS(=O)(=O)c1ccccc1-c1ccc(-c2cnc(N)nc2)c(F)c1` [Example 305, 4′-(2-aminopyrimidin-5-yl)-N-(tert-butyl)-3′-fluoro[1,1′-biphenyl]-2-sulfonamide trifluoroacetic acid salt] here?
**A.** The Ki was 1.6 nM.

**Q.** With `C[C@H](NS(=O)(=O)c1ccccc1-c1ccc(-c2cnc(N)nc2)c(F)c1)C(=O)OC(C)(C)C` [Example 307, tert-Butyl N-{[4′-(2-aminopyrimidin-5-yl)-3′-fluorobiphenyl-2-yl]sulfonyl}-L-alaninate] as the molecule, how does the Ki read?
**A.** Its Ki is 4.5 nM.

**Q.** `Nc1ncc(-c2ccc(-c3ccccc3S(=O)(=O)N3CC4(COC4)C3)cc2F)cn1` [Example 312, 5-(2′-(2-oxa-6-azaspiro[3.3]heptan-6-ylsulfonyl)-3-fluoro-[1,1′-biphenyl]-4-yl)pyrimidin-2-amine] was tested. Which Ki did it give?
**A.** Its Ki is 323 nM.

**Q.** With `N#CC1CN(S(=O)(=O)c2ccccc2-c2ccc(-c3cnc(N)nc3)c(F)c2)C1` [Example 314, 1-((4′-(2-aminopyrimidin-5-yl)-3′-fluoro-[1,1′-biphenyl]-2-yl)sulfonyl)azetidine-3-carbonitrile] as the molecule, how does the Ki read?
**A.** The Ki was 88.8 nM.

**Q.** `Nc1ncc(-c2ccc(-c3ccccc3S(=O)(=O)N3CC(O)(C(F)(F)F)C3)cc2F)cn1` [Example 315] was tested. Which Ki did it give?
**A.** The Ki was 1.3 nM.

**Q.** Which Ki does the source give for `Nc1ncc(-c2ccc(-c3ccccc3S(=O)(=O)Cc3nc(C4CC4)no3)cc2F)cn1` [Example 321, 5-(2′-{[(3-Cyclopropyl-1,2,4-oxadiazol-5-yl)methyl]sulfonyl}-3-fluorobiphenyl-4-yl)pyrimidin-2-amine] here?
**A.** Its Ki is 505 nM.

**Q.** For `CNS(=O)(=O)c1cc(C(F)(F)F)ccc1-c1ccc(-c2cnc(N)nc2)c(F)c1` [Example 325, 4′-(2-aminopyrimidin-5-yl)-3′-fluoro-N-methyl-4-(trifluoromethyl)biphenyl-2-sulfonamide], which Ki is on record?
**A.** The Ki was 4.7 nM.

**Q.** With `CCNS(=O)(=O)c1cc(C(F)(F)F)ccc1-c1ccc(-c2cnc(N)nc2)c(F)c1` [Example 327] as the molecule, how does the Ki read?
**A.** Its Ki is 1.8 nM.
